How the values were obtained:
[1] = Critical micelle concentration (CMC) by DPH fluorescence; assay type: physicochemical; settings: for CMC: 50 mM tris-HCl, pH 8.0
[2] = target: T1, BmrA (Bacillus subtilis, UniProt O06967); experiment: Extraction of BmrA from membranes (SDS-PAGE of supernatant); set-up: species or system bacterial; overexpressed in E. coli C41DE3; settings: detergent 10 g/l unless indicated otherwise; 2 h at 4° C.
T1 construct: His tag; made in house; host or cells: E. coli C41(DE3)
Method in brief: (§1)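 E. coli C41(DE3) membranes overexpressing BmrA (~25% of protein) or AcrB (~20%), at 2 g/l protein in 20 mM Tris-HCl pH 8.0, 100 mM NaCl, 15% glycerol with protease inhibitors, treated with detergent at 10 g/l unless stated otherwise for 2 h at 4° C. After 100 000×g centrifugation, 20 μg supernatant protein run on 10% SDS-PAGE, Coomassie-stained.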

[3] = target: T2, AcrB (Escherichia coli, UniProt P31224); experiment: Extraction of AcrB from membranes (SDS-PAGE of supernatant); set-up: species or system bacterial; same expression system (E. coli C41DE3); settings: detergent 10 g/l unless indicated otherwise; 2 h at 4° C.
T2 construct: made in house; host or cells: E. coli C41(DE3)
Method in brief: as §1

[4] = Diameter of micelles by dynamic light scattering (DLS); assay type: physicochemical; settings: for Ø, nm: estimated micelle diameter by DLS, 30 mM tris-HCl, pH 8.0
Protocol: FIG. 5 depicts the dynamic light scattering (DLS) of clips, in intensity (%, column A on the left) and in number (%, column B on the right), as a function of the […] (nm). The estimated diameters are indicated on each panel (column A). Columns A and B, from top to bottom: compound 3.7c (10 mM, 5×CMC), compound 3.7d (10 mM, 5×CMC), compound 3.7e (2 mM, […]), compound 3.7f (10 mM, 500×CMC), compound 3.7h (1 mM, 100×CMC), compound 3.7j (2 mM, 100×CMC), compound 3.9a (1 mM, 50×CMC).
Another physicochemical parameter of the micelles of detergents is their diameter, assuming that they are spherical. This dimension is obtained by the light scattering (DLS) technique.
Procedure. The molecules of the invention tested were prepared in a range of concentrations extending from 0.1 to 1000×CMC in 30 mM tris-HCl, pH 8.0 and neutralized at this pH. The solutions are filtered on 0.22 μm. The measurement is carried out on 100 μl, in triplicate on a Zetasizer Nano-S from Malvern Instruments.

T2 sequence (P31224 whole entry): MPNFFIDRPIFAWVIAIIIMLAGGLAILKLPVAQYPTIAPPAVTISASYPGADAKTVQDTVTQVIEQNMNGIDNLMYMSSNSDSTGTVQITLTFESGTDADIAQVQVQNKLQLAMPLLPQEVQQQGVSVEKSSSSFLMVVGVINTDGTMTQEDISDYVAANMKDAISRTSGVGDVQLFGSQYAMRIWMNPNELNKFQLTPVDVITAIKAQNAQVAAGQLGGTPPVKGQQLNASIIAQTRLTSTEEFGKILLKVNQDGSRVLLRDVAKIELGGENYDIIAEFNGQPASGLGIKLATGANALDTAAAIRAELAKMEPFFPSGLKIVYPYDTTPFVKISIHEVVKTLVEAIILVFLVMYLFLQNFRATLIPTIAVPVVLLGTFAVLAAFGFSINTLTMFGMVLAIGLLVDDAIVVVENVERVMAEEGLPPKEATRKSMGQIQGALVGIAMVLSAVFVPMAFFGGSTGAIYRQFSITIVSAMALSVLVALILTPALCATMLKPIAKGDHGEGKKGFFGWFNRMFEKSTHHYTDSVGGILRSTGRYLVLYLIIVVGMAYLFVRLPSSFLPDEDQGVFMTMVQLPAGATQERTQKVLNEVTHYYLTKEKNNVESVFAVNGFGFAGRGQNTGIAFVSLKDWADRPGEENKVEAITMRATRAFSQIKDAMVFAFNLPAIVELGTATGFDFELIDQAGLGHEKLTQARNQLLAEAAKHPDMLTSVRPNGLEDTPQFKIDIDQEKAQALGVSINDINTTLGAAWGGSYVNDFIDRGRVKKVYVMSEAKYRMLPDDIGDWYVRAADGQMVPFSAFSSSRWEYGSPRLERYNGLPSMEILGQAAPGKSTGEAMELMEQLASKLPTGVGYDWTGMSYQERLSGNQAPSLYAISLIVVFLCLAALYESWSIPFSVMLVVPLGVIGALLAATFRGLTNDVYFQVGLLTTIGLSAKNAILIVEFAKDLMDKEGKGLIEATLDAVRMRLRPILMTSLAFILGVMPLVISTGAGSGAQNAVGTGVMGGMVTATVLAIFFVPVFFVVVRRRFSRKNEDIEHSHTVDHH
T1 sequence (O06967 whole entry): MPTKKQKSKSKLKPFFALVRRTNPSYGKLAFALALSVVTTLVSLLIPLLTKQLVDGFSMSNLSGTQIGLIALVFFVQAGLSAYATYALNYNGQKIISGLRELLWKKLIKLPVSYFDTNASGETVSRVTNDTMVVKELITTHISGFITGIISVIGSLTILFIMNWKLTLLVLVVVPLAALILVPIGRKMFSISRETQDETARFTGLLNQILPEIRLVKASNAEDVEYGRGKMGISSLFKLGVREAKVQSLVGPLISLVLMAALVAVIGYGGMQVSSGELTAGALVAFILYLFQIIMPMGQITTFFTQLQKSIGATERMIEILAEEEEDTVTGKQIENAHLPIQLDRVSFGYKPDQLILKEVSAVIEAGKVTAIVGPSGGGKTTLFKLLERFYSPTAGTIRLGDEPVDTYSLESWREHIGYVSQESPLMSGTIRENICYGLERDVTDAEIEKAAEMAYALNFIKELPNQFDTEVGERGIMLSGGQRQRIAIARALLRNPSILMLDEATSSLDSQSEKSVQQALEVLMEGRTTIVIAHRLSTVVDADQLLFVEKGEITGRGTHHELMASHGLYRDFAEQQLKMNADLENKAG

Structure (SMILES) | CMC [1] | extraction of BmrA [2] | extraction of AcrB [3] | Ø, nm [4] | CMC (breakage in the slope of DPH fluorescence, FIG. 4) ([1]; triplicates) | estimated diameter ([4]; DLS)
CCCCCCCCCCCC(=O)N[C@@H](COCc1cn(CCO[C@@H]2OC(CO)[C@@H](O)C(O)C2O)nn1)C(=O)N[C@H](CCC(=O)O)C(=O)O (stereo partly shown) [Compound 3.7b] | 1.5 mM | non-extracting | do not extract | – | – | –
CCCCCCCCCCCCCC(=O)N[C@@H](COCc1cn(CCO[C@@H]2OC(CO)[C@@H](O)C(O)C2O)nn1)C(=O)N[C@H](CCC(=O)O)C(=O)O (stereo partly shown) [Compound 3.7c] | 1 mM | extracting | extracting | 3.8 nm | – | –
CCCCCCCCCCCCCC(=O)N[C@@H](COCc1cn(CCO[C@@H]2OC(CO)[C@@H](O[C@H]3OC(CO)[C@@H](O)C(O)C3O)C(O)C2O)nn1)C(=O)N[C@H](CCC(=O)O)C(=O)O (stereo partly shown) [Compound 3.7e] | 2 mM | non-extracting | extracting | 3.5 nm | 2 mM | –
CCCCCCCCCCCCCC(=O)N[C@@H](COCc1cn(CCOCCOCCOCCOCCOCCOC)nn1)C(=O)N[C@H](CCC(=O)O)C(=O)O [Compound 3.7g] | 1 mM | extracting | – | – | – | –
CCCCCCCCCCCCC(CCCCCCCCCCCC)C(=O)N[C@@H](COCc1cn(CCO[C@@H]2OC(CO)[C@@H](O)C(O)C2O)nn1)C(=O)N[C@H](CCC(=O)O)C(=O)O (stereo partly shown) [Compound 3.7j] | 0.02 mM | partially extracting | extracting | 60 nm | – | ~60 nm
CCCCCCCCCCCCCC(=O)N[C@@H](COCc1cn(CCO[C@@H]2OC(CO)[C@@H](O)C(O)C2O)nn1)C(=O)N[C@@H](CCC(=O)O)C(=O)NCC(=O)O (stereo partly shown) [Compound 3.7l] | 1 mM | extracting | extracting | – | – | –

From patent US11440932B2, “Surfactant compounds-clips for extraction and stabilization in solution of membrane proteins” (CENTRE NATIONAL DE LA RECHERCHE SCIENTIFIQUE, priority 2017, dated 2022)
